Measured values reported in patent EP3290412A1, “HIV-1 NUCLEOCAPSID INHIBITORS” (Università degli Studi di Siena, priority 2016, dated 2018).
Where two headings read alike, the source gives them in different places.

Assays:
Type in all cases: cell-based
[1] = system: HeLa cells; test: HeLa Proliferation assay (CellTiter Glo); details: 72 hours
In short: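 Viability measured with CellTiter Glo after 72 h compound exposure (37 °C, 5% CO2, humidified) of HeLa cells seeded at 2000 per well in 10% FBS DMEM without phenol red and allowed 4 h recovery.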

[2] = system: HIV-1 reference strain NL4-3; test: BiCycle assay (MT-2 then TZM-bl cells); details: for EC50: read-out: Mean EC50 (nM)
In short: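 MT-2 cells were infected with NL4-3 in the presence of five-fold compound dilutions. After 72 h, the supernatant was passed to TZM-bl cells. Two days later, luciferase luminescence was read and IC50 calculated, giving a readout that spans the whole replication cycle.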

[3] = system: Peripheral blood mononuclear cells (PBMC); details: human, 7 days
In short: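 Cytotoxicity measured after 7 days of compound exposure by MTS conversion (OD 490 nm, 4 h). The cells were PHA-activated (5 µg/mL, 2 days) donor PBMC, cultured with 20 IU/mL IL-2 at 1x10^5 cells/well. TD50 is the dose killing 50% versus untreated control, read from the dose-mortality curve.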

[4] = Human immunodeficiency virus 1, NL43, TZM-bl, read-out: BiCycle IC50 nM
[5] = Human immunodeficiency virus 1, NL43, TZM-bl
[6] = Human immunodeficiency virus 1, NL43, MT-2 cells 72 hours then TZM-bl cells two days, NL4-3, read-out: BiCycle IC50

Structure (SMILES) | Proliferation assay HELA TD50 [1] | IC50 [2, 4] | Proliferation assay PBMC TD50 [3] | EC50 [2, 5] | TD50 [3] | IC50 [2, 6]
CC1CCCCC1NC(=O)c1nc(-c2ccccn2)nc(O)c1O (stereo not shown) [Compound 59, 5,6-dihydroxy-N-(2-methylcyclohexyl)-2-(pyridin-2-yl)pyrimidine-4-carboxamide] | 0.6946 µM | 408 nM | 2180 nM | – | – | –
Cc1cccnc1-c1nc(O)c(O)c(C(=O)N[C@H](C)C2CCCCC2)n1 [Compound 23, (R)-N-(1-cyclohexylethyl)-5,6-dihydroxy-2-(3-methylpyridin-2-yl)pyrimidine-4-carboxamide] | 2.3339 µM | 203 nM | 8900 nM | 200 nM | 8.9 µM | –
CC(NC(=O)c1nc(-c2ccccn2)nc(O)c1O)C1CCCC1 (stereo not shown) [Compound 65, N-(1-cyclopentylethyl)-5,6-dihydroxy-2-(pyridin-2-yl)pyrimidine-4-carboxamide] | 0.8839 µM | 330 nM | 3100 nM | – | – | –
C[C@@H](NC(=O)c1nc(-c2ccccn2)nc(O)c1O)C1CCCCC1 [Compound 5, (R)-N-(1-cyclohexylethyl)-5,6-dihydroxy-2-(pyridin-2-yl)pyrimidine-4-carboxamide] | 3.1844 µM | 702 nM | 3000 nM | – | – | –
CC(=O)Nc1ccc(-c2nc(O)c(O)c(C(=O)N[C@H](C)C3CCCCC3)n2)nc1 [Compound 62, (R)-2-(5-acetamidopyridin-2-yl)-N-(1-cyclohexylethyl)-5,6-dihydroxypyrimidine-4-carboxamide] | 4.5519 µM | 252 nM | 1870 nM | – | – | –
C[C@@H](NC(=O)c1nc(-c2ccc(N)cn2)nc(O)c1O)C1CCCCC1 [Compound 20, (R)-2-(5-aminopyridin-2-yl)-N-(1-cyclohexylethyl)-5,6-dihydroxypyrimidine-4-carboxamide] | 0.6864 µM | 94.5 nM | 1650 nM | – | – | –
O=C(NCC1CCCCC1)c1nc(-c2ncccc2Cl)nc(O)c1O [Compound 16, 2-(3-chloropyridin-2-yl)-N-(cyclohexylmethyl)-5,6-dihydroxypyrimidine-4-carboxamide] | 16.609 µM | – | 5700 nM | – | – | 2050 nM
C[C@@H](NC(=O)c1nc(-c2cc(N)ccn2)nc(O)c1O)C1CCCCC1 [Compound 48, (R)-2-(4-aminopyridin-2-yl)-N-(1-cyclohexylethyl)-5,6-dihydroxypyrimidine-4-carboxamide] | 1.5496 µM | 1340 nM | 2600 nM | – | – | –
CC1CCCC(NC(=O)c2nc(-c3ccccn3)nc(O)c2O)C1 (stereo not shown) [Compound 57, 5,6-dihydroxy-N-(3-methylcyclohexyl)-2-(pyridin-2-yl)pyrimidine-4-carboxamide] | 1.9094 µM | 432 nM | 2700 nM | – | – | –
C[C@H](NC(=O)c1nc(-c2cc(Cl)ccn2)nc(O)c1O)C1CCCCC1 [Compound 78, (S)-2-(4-chloropyridin-2-yl)-N-(1-cyclohexylethyl)-5,6-dihydroxypyrimidine-4-carboxamide] | 2.3576 µM | 285 nM | 1900 nM | – | – | –
C[C@@H](NC(=O)c1nc(-c2cc(Cl)ccn2)nc(O)c1O)C1CCCCC1 [Compound 26, (R)-2-(4-chloropyridin-2-yl)-N-(1-cyclohexylethyl)-5,6-dihydroxypyrimidine-4-carboxamide] | 3.1977 µM | 121 nM | 2490 nM | – | – | –
Cc1ccnc(-c2nc(O)c(O)c(C(=O)N[C@H](C)C3CCCCC3)n2)c1 [Compound 19, (R)-N-(1-cyclohexylethyl)-5,6-dihydroxy-2-(4-methylpyridin-2-yl)pyrimidine-4-carboxamide] | 2.7357 µM | 218 nM | 3075 nM | – | – | –
O=C(OCC1CCCCC1)c1nc(-c2ncccc2Cl)nc(O)c1O [Compound 15, cyclohexylmethyl 2-(3-chloropyridin-2-yl)-5,6-dihydroxypyrimidine-4-carboxylate] | >50 µM | – | 25000 nM | – | – | 9660 nM
Cc1cccc(-c2nc(O)c(O)c(C(=O)N[C@H](C)C3CCCCC3)n2)n1 [Compound 18, (R)-N-(1-cyclohexylethyl)-5,6-dihydroxy-2-(6-methylpyridin-2-yl)pyrimidine-4-carboxamide] | 4.6302 µM | 437 nM | 2400 nM | – | – | –
CC(OC(=O)c1nc(-c2ccccn2)nc(O)c1O)C1CCCCC1 (stereo not shown) [Compound 17, 1-cyclohexylethyl 5,6-dihydroxy-2-(pyridin-2-yl)pyrimidine-4-carboxylate] | >50 µM | 2030 nM | 5500 nM | – | – | –
O=C(NCC1CCC1)c1nc(-c2cc3ccccc3cn2)nc(O)c1O [Compound 47, N-(cyclobutylmethyl)-5,6-dihydroxy-2-(isoquinolin-3-yl)pyrimidine-4-carboxamide] | 3.3326 µM | 870 nM | 4900 nM | – | – | –
O=C(NCC1CCCCC1)c1nc(-c2ccccn2)nc(O)c1O [Compound 1, N-(cyclohexylmethyl)-5,6-dihydroxy-2-(pyridin-2-yl)pyrimidine-4-carboxamide] | 3.5857 µM | 1210 nM | 2600 nM | – | – | –
COc1ccc(-c2nc(O)c(O)c(C(=O)N[C@H](C)C3CCCCC3)n2)nc1 [Compound 32, (R)-N-(1-cyclohexylethyl)-5,6-dihydroxy-2-(5-methoxypyridin-2-yl)pyrimidine-4-carboxamide] | 0.9356 µM | 341 nM | 3000 nM | – | – | –
C[C@@H](NC(=O)c1nc(-c2ncccc2C(F)(F)F)nc(O)c1O)C1CCCCC1 [Compound 30, (R)-N-(1-cyclohexylethyl)-5,6-dihydroxy-2-(3-(trifluoromethyl)pyridin-2-yl)pyrimidine-4-carboxamide] | >50 µM | – | 5400 nM | – | – | 1730 nM
C[C@@H](NC(=O)c1nc(-c2nccc3ccccc23)nc(O)c1O)C1CCCCC1 [Compound 31, (R)-N-(1-cyclohexylethyl)-5,6-dihydroxy-2-(isoquinolin-1-yl)pyrimidine-4-carboxamide] | 2.0709 µM | 100 nM | 5000 nM | 100 nM | 5 µM | –
C[C@@H](NC(=O)c1nc(-c2cc(CCN)ccn2)nc(O)c1O)C1CCCCC1 [Compound 88, (R)-2-(4-(2-aminoethyl)pyridin-2-yl)-N-(1-cyclohexylethyl)-5,6-dihydroxypyrimidine-4-carboxamide] | 7.1338 µM | 12700 nM | 3250 nM | – | – | –
COc1cccc(-c2nc(O)c(O)c(C(=O)N[C@H](C)C3CCCCC3)n2)n1 [Compound 37, (R)-N-(1-cyclohexylethyl)-5,6-dihydroxy-2-(6-methoxypyridin-2-yl)pyrimidine-4-carboxamide] | 0.8976 µM | 332 nM | 1500 nM | – | – | –
O=C(OCCC1CCCCC1)c1nc(-c2ccccn2)nc(O)c1O [Compound 12, 2-cyclohexylethyl 5,6-dihydroxy-2-(pyridin-2-yl)pyrimidine-4-carboxylate] | >50 µM | 2820 nM | 4000 nM | – | – | –
